Measurements: EP0808833B1, “Vitamin D3 analogs” (F. HOFFMANN-LA ROCHE AG, priority 1996, dated 1997)
Read-outs that look alike come from different tables or passages of the source. Marks after values point to notes of the source that are not given here.

Key:
[1] = Calcium tolerance test in mice; format: in vivo; settings: highest tolerated dose = dose resulting in zero weight gain, daily subcutaneous administration for 4 consecutive days; for MTD: mouse, in vivo, sc, read-out: HTD
Excerpt: Calcium tolerance test in mice
Profound changes in calcium homeostasis strongly affect the weight development of mice. Mice (25-30 g body weight) received daily subcutaneous administrations of the compound for 4 consecutive days. Body weight was registered just before and at the end of a […] treatment period. The "highest tolerated dose" (HTD) is the dose which results in zero weight gain during this treatment period.

sebaceous cells = assay: Inhibition of human sebocyte proliferation in vitro; format: cell-based; settings: amount of compound necessary to inhibit proliferation of sebaceous cells by 50% as compared to a vehicle-treated culture, tested at 10^-6, 10^-7 and 10^-8 M, read-out: ED50 (the source's name)
Procedure: Inhibition of Human Sebocyte Proliferation In Vitro
The cells were cultured in Iscove's medium containing 10% fetal calf serum and 4 µg/ml dexamethasone on a layer of growth-arrested 3T3 mouse fibroblasts. Cells were plated in medium without the test compound and then given test compound in fresh medium 24-48 hours after the initial plating. The cultures were given fresh medium, containing the test compound, every 48 hours. On the day of harvesting, the cultures were rinsed with 0.03% EDTA (ethylenediamine tetroacetic acid) in PBS (phosphate-buffered saline), to remove only the 3T3 fibroblasts, followed by incubation in 0.05% trypsin/0.03% EDTA. The cells were suspended, mixed vigorously to prepare a single cell suspension and counted in a hemocytometer.
Stock solutions of compounds were made up as 10^-2 M solutions in degassed 100% ethanol and stored at -20°C in the dark. During experimental use, the solutions, which have been aliquoted, were brought to room temperature and used by diluting directly into complete medium to the appropriate concentration.

HaCaT cells = assay: Inhibition of keratinocyte proliferation (3H-thymidine uptake, HaCaT); format: cell-based; settings: Homo sapiens, 3H-thymidine incorporation after 6 days of culture in presence of the test compound
[2] = system: UVB-Induced Dermal Damage; assay: Repair of UVB-induced dermal damage in the hairless mouse; format: in vivo, Hairless mice; settings: treated three times per week after UVB irradiation
Procedure: Repair of UVB-Induced Dermal Damage in the Hairless Mouse by Compounds of Formula I Hairless mice (female, HRS/J strain, Jackson Labs, 5-7 weeks old at the start of the experiments) were housed in yellow light and irradiated three times per week with a bank of 8 Westinghouse Sunlamps (FS72T12 HO, peak irradiance at 313 nm) placed about 20 cm above the animals. UVB output was measured on an International Light Research Radiometer, model IL 1700, using a SEE240 detector. With this setup, the lamp output was approximately 3.5 mW/cm^2 and the time of exposure for 0.06 J/cm^2 was about 17 seconds; 1 MED is approximately 0.03 J/cm^2. The precise dose was delivered by a IL […] Phototherapy Exposure Control. Daily doses were 0.03 J/cm^2 for two weeks, 0.06 J/cm^2 for two weeks and 0.08 J/cm^2 thereafter, until a total dose of approximately 4 J/cm^2 was accumulated. To effect repair of the dermal damage, the UVB irradiation was discontinued and the animals were divided into groups of approximately eight and treated three times per week with various concentrations of the vitamin D analogs dissolved in ethanol. All dosing was done under yellow light. […] In these studies, since the width of the zone varies considerably, the area of the zone on a standard length of histological section is measured by image analysis. Compounds are tested at three doses and an approximate ED50 calculated.

[3] = system: T47-D breast carcinoma cells; assay: Antiproliferative activity in T47-D breast carcinoma cells (MTT); format: cell-based; settings: Homo sapiens, T47D, 72 h
HL-60 cells = assay: HL-60 cell differentiation (NBT reduction); format: cell-based; settings: Homo sapiens, HL-60, 72 h, concentration leading to 50% of maximal differentiation achieved with 100-1000 nM calcitriol, 3 days, read-out: ED50 (the source's name)

“1,25-Dihydroxy-16,23Z-diene-26,27-hexafluoro-20-epi-19-norcholecalciferol” gave an HTD [1] of 3.0 µg/kg.

In the case of `C=C1/C(=C\C=C2/CCC[C@]3(C)[C@@H]([C@H](C)CCCC(C)(C)O)CC[C@@H]23)C[C@@H](O)C[C@@H]1O` [1,25-Dihydroxy-cholecalciferol, reference compound], the MTD [1] is reported as 0.5 µg/kg.

`C=C1C(=CC=C2CCCC3(C)C(C(C)C/C=C\C(O)(C(F)(F)F)C(F)(F)F)=CCC23)CC(O)CC1O` (stereo not drawn) [1,25-Dihydroxy-16,23Z-diene-26,27-hexafluoro-20-epi-cholecalciferol] showed an HTD [1] of 2.5 µg/kg.

For `C=C1C(=CC=C2CCCC3(C)C(C(C)CC#CC(C)(C)O)=CCC23)CC(O)CC1O` (stereo not drawn) [1,25-Dihydroxy-16-ene-23-yne-20-epi-cholecalciferol], the EC50 (sebaceous cells) was 50 nM and the HTD [1] was 100 µg/kg.

`C=C1C(=CC=C2CCCC3(C)C(C(C)C/C=C\C(O)(C(F)(F)F)C(F)(F)F)=CCC23)CC(O)CC1F` (stereo not drawn) [1α-Fluoro-25-hydroxy-16,23Z-diene-26,27-hexafluoro-20-epi-cholecalciferol] showed an HTD [1] of 8.0 µg/kg.

In the case of `C=C1/C(=C\C=C2/CCC[C@]3(C)C([C@@H](C)CC#CC(O)(C(F)(F)F)C(F)(F)F)=CC[C@@H]23)C[C@@H](O)C[C@@H]1O` [1,25-Dihydroxy-16-ene-23-yne-26,27-hexafluoro-20-epi-cholecalciferol], the EC50 (sebaceous cells) is reported as less than 10 nM and the HTD [1] is reported as 6.0 µg/kg.

In the case of `C=C1/C(=C\C=C2/CCC[C@]3(C)C([C@@H](C)C/C=C/C(O)(C(F)(F)F)C(F)(F)F)=CC[C@@H]23)C[C@@H](O)C[C@@H]1O` [1,25-Dihydroxy-16,23E-diene-26,27-hexafluoro-20-epi-cholecalciferol], the EC50 (sebaceous cells; Homo sapiens) is reported as less than 10 nM, the IC50 (HaCaT cells) is reported as 0.7 nM and the “Repair Zone” value ([2]; Dose 0.1 µg, P < 0.001 vs vehicle control) is reported as 0.0282±0.0092*** mm^2. For the same compound, the “Repair Zone” value ([2]; Dose 0.5 µg, P < 0.05 vs vehicle control) was 0.0102±0.0067* mm^2, the IC50 [3] was 10 nM and the MTD [1] was 2.5 µg/kg. It also gave an EC50 (HL-60 cells) of 0.37 nM.

`C=C1C(=CC=C2CCCC3(C)C(C(C)CCCC(C)(C)O)=CCC23)CC(O)CC1O` (stereo not drawn) [1,25-Dihydroxy-16-ene-20-epi-cholecalciferol] gave an EC50 (sebaceous cells) of less than 1 nM and an HTD [1] of 30 µg/kg.
